PMC5880497, “Interaction of lecithin:cholesterol acyltransferase with lipid surfaces and apolipoprotein A-I-derived peptides” (Journal of Lipid Research, 2018)
No end group written: not given here.

Legend:
[1] = molecular target: T1, glycosylated human LCAT protein (Homo sapiens, UniProt P04180); test: MP-SPR binding of LCAT to immobilised biotin-labelled apoA-I-derived peptides; details: N-terminal biotin-peptide on streptavidin-coated sensor, LCAT 156-5,000 nM serial injections of 15 min, 10 μl/min, buffer A pH 7.4, 293 K, Langmuir fit
T1 construct: purchased Sino Biological Inc., Beijing, China; host or cells: human cells
T1 sequence (P04180 25-440): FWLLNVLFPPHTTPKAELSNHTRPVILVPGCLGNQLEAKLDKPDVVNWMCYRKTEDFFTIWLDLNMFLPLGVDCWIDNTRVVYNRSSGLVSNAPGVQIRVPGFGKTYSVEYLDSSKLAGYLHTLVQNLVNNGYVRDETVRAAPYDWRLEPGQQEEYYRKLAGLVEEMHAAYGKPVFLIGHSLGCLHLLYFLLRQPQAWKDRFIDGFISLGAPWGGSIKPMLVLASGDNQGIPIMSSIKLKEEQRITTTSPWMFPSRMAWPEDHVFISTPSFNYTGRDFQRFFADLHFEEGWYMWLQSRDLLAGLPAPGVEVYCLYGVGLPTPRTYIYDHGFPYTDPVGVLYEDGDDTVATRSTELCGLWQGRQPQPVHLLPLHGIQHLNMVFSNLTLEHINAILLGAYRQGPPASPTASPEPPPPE
Procedure: POPC dissolved in chloroform (25 mg/ml) was obtained from Avanti Polar Lipids (Alabaster, AL). Calcium chloride, HEPES, CHAPS, sodium chloride, EDTA, sodium azide, and potassium dihydrogen phosphate were obtained from Merck Sigma-Aldrich (Darmstadt, Germany). Potassium chloride was obtained from Honeywell Riedel de Haën (Seelz, Germany); disodium hydrogen phosphate was obtained from Fisher Scientific (Hampton, NH). Peptides and N-terminal biotin-labeled peptides were synthesized by Peptide Protein Research Ltd., Hampshire, UK and had the following amino acid sequences: i) 122-142, […]; ii) 135-155, […]; iii) 150-170, […]; iv) 150-170-Y166F, […]; and v) 185-205, […]. Lyophilized glycosylated human LCAT protein (Sino Biological Inc., Beijing, China; a recombinant protein produced in human cells) was reconstituted with 400 μl of ultrapure sterile water to yield LCAT at 5 μM in PBS (manufacturer specifications). Ultrapure water used for preparation of the buffer and in all measurements was prepared with a Milli-Q purification system, having a resistivity of 18 MΩ·cm and TOC level of <5 ppm. The following buffers were used: 20 mM PBS, 1 mM EDTA, 1 mM Na azide (pH 7.4) (buffer A); and 20 mM HEPES and 150 mM NaCl (pH 7.4) (buffer B).
Measurements were performed with a multi-parameter SPR Navi™ 200 (BioNavis Ltd., Tampere, Finland) instrument. The setup was equipped with two incident laser wavelengths, 670 nm and 785 nm, two independent flow channels, inlet tubing and outlet (waste) tubing, and an autosampler. Both of the flow channels were measured simultaneously with 670 nm and 785 nm incident light. The measurement temperature was kept constant at 293° K. Biotin-coated SPR sensors (Bionavis Ltd.) were placed in the flow-cell. The flow rates used for the streptavidin interaction with biotin, biotin-peptides with streptavidin, and for LCAT interaction with immobilized peptides were 10 μl/min. SPR spectra were recorded after introduction of buffer A into the flow-cell for 10–30 min until a stable baseline was achieved, after which the surface was fully saturated with streptavidin during a 10 min serial injection at 1.9 μM to saturate the SPR sensor. It was observed that after 5 min the SPR sensor was fully coated with streptavidin; therefore, the method was adapted to 5 min. In the second phase of the measurement, in DMSO solubilized biotin-peptides with a final concentration of 100 μM were injected in parallel into both flow channels for 7 min at […] to cover the SPR sensor fully, i.e., until all streptavidin bindings sites were fully occupied. Parallel injections ensured that two peptides were analyzed simultaneously. Increasing concentrations of LCAT were then injected into both channels via serial injection, to ensure the lowest variation of LCAT injection for 15 min at increasing concentrations (156, 313, 625, 1250, 2,500, and 5,000 nM) to determine the binding constant of the LCAT-peptide complexes. The data was fitted in OriginPro (v. 8.6, OriginLab Corp., Northampton, MA) according to the Langmuir model to obtain the dissociation constants (Kd) and the responses of saturated binding (Rmax): R=Rmax/1+Kd/c
where R is the final response after each injection and c is the concentration of LCAT in each injection.
To also elucidate the specificity of different peptide regions against LCAT, we carried out MP-SPR experiments to determine dissociation constants (Kd) for the LCAT-peptide complexes. […]

[2] = QCM binding of LCAT, peptides or LCAT plus peptide to a POPC supported lipid bilayer; details: POPC SLB, LCAT 37.5 nM in buffer A, without apoA-I or peptide
Procedure: Prior to the QCM measurements, the PBS buffer formed after reconstitution of LCAT was exchanged for buffer A due to the extremely high sensitivity of the QCM method to slight differences in the ionic strength of the background buffer. The LCAT solution was placed in an Amicon Ultra-0.5 10K centrifugal filter device (Merck Millipore Ltd., Tullagreen Carrigtohill, Ireland) and equal volumes of buffer A were filtered through 10 times at 14,000 g, after which 400 μl of buffer A were added to fully recover LCAT at 5 μM. The peptides were dissolved into buffer A at a final concentration of 100 μM. An impedance-based QCM instrument (KSV Instruments Ltd., Helsinki, Finland) was used for the measurements. The measurement temperature was kept constant at 293° K. Before measurements, silica-coated QCM sensors (Q-Sense Inc./BiolinScientific, Västra Frölunda, Sweden) were first flushed with 70% ethanol and ultrapure water, dried under nitrogen flow, and finally oxygen plasma treated (PDC-002; Harrick Plasma, Ithaca, NY) for 5 min at 29.6 W and 133-173 Pa. Samples were injected into the measurement chamber with a peristaltic pump system (Ismatec/Cole-Parmer GmbH, Wertheim, Germany). […] Neither LCAT nor peptides induced changes in viscoelastic properties of the bilayer, which was seen as negligible changes in the recorded energy dissipation. […]

[3] = LCAT with small unilamellar vesicles in the absence of apolipoproteins; cited from earlier work
Text: To assess the possibility of the second hypothesis, we calculated the binding free-energies for LCAT in open and closed states. As shown by the PMF profiles in Fig. 5A, the lid-open state (ΔGwater→lipid = −28 ± 1 kJ/mol) is not able to bind so strongly to lipids when compared with the lid-closed state (ΔGwater→lipid = −34 ± 1 kJ/mol), although the previous findings indicated a deeper lipid interaction for the open state (Fig. 3B). The value for the closed state is well in agreement with existing experimentally determined dissociation constants giving binding a free-energy value of −36 kJ/mol f ...

Kd [1] [nM]	Substance	Binding of LCAT alone to the POPC membrane [2]	Binding free-energy from experimentally determined dissociation constants [3] [kcal/mol]
1840	DRARAHVDALRTHLAPFSDEL [150-170-Y166F]		
290	DRARAHVDALRTHLAPYSDEL [150-170]		
4690	GGARLAEYHAKATEHLSTLSE [185-205, reference compound]		
819	HELQEKLSPLGEEMRDRARAH [135-155]		
1030	LRAELQEGARQKLHELQEKLS [122-142]		
	lecithin:cholesterol acyltransferase [LCAT]	binds to the POPC membrane without apoA-I	-8.6
